Experimental findings from patent US20070197452A1, “Treatment of amyloid-related diseases” (priority 2006, published 2007) are described below.

Common to all, as to format: in vivo, mouse
One test deals with T1, Aβ42 (Homo sapiens, UniProt P05067).
T1 construct: analyzed for Aβ40 and Aβ42 using commercially available kits; from tissue; host or cells: hemi-brain homogenates and plasma of TgCRND8 transgenic mice
The experiment in a line: Cerebral Aβ42 content of hemi-brain homogenates (commercial kit). As to conditions: for brain Aβ42 levels: TgCRND8 mice with pre-existing disease, 28 days from 5 months of age. As to the method:
(§1) Plasma and Cerebral Aβ Content. Hemi-brain samples were homogenized in a buffered sucrose solution, followed by either 0.4% diethylamine/100 mM NaCl for soluble Aβ levels or cold formic acid for the isolation of total Aβ. After neutralization, the samples were diluted and analyzed for Aβ40 and Aβ42 using commercially available kits (BIOSOURCE International). Each hemisphere was analyzed in triplicate and the mean values±SEM reported. Western blot analyses were performed on all fractions using urea gels for Aβ species analyses. Aβ was detected using 6E10 (BIOSOURCE International) and Enhanced Chemiluminenscence (Amersham).
(§2) Plasma and cerebral Aβ content. Hemi-brain samples were homogenized in a buffered sucrose solution, followed by either a mixture of 0.4% diethylamine and 100 mM NaCl for soluble Aβ levels or cold formic acid for the isolation of total Aβ. After neutralization, samples were diluted and analyzed for Aβ40 and Aβ42 using commercially available kits (Biosource International). Each hemisphere was analyzed in triplicate and the mean±s.e.m. was reported. Western blot analyses were carried out on all fractions using urea gels for Aβ species analyses. Aβ was detected using 6E10 (Biosource International).

The next test has as its target T2, Aβ40 (Homo sapiens, UniProt P05067).
T2 construct: analyzed for Aβ40 and Aβ42 using commercially available kits; from tissue; host or cells: hemi-brain homogenates of TgCRND8 transgenic mice
The experiment in a line: Cerebral Aβ40 content of hemi-brain homogenates (commercial kit). The conditions noted are these: for brain Aβ40 levels: TgCRND8 mice with pre-existing disease, 28 days from 5 months of age. As to the method: as §1, §2

Test [1] relates to TgCRND8 mice. As to the kind of experiment: Cerebral amyloid plaque burden (anti-Aβ immunostaining, image analysis). As to conditions: for amyloid burden in hippocampus and cerebral cortex: TgCRND8 mice at six months of age. As to the method: Cerebral amyloid burden. […] To generate sets of systematic uniform random sections, 5 μm serial sections were collected across the entire hemisphere. Sets of sections at 50 μm intervals were used for analyses (10-14 sections/set). Plaques were identified after antigen retrieval with formic acid, and incubation with primary anti-Aβ antibody (Dako M-0872), followed by secondary antibody (Dako StreptABCcomplex/horseradish kit). End products were visualized with DAB and were counter-stained with luxol fast blue. Amyloid plaque burden was assessed with Leco IA-3001 image analysis software interfaced with Leica microscope and Hitachi KP-M1U CCD video camera. Openlab imaging software (Improvision, Lexington, Mass.) was then used to convert micrographs to binary images for plaque number and plaque area determinations. Vascular amyloid burden was defined as amyloid originating from or surrounding blood vessels and was analysed similarly. Cerebral Aβ burden. […] Sets of sections at […] intervals for analyses (10-14 sections per set) were used. Plaques with primary Aβ-specific antibody (Dako M-0872) were identified and visualized with DAB. AP plaque burden was assessed with Openlab imaging software (Improvision) and used to convert micrographs to binary images for determinations of plaque number and plaque area. Vascular Aβ burden was defined as Aβ plaques originating from or surrounding blood vessels and was analyzed similarly. Cerebral Aβ burden. […] To generate sets of systematic uniform random sections, 5 μm serial sections were collected across the entire hemisphere. Sets of sections at 50 μm intervals were used for analyses (10-14 sections/set). Plaques were identified after antigen retrieval with formic acid, and incubation with primary anti-Aβ antibody (Dako M-0872), followed by secondary antibody (Dako StreptABCcomplex/horseradish kit). End products were visualized with DAB and were counter-stained with luxol fast blue. Aβ plaque burden was assessed with Leco IA-3001 image analysis software interfaced with Leica microscope and Hitachi KP-M1U CCD video camera. Openlab imaging software (Improvision, Lexington, Mass.) was then used to convert micrographs to binary images for plaque number and plaque area determinations. Vascular Aβ burden was defined as Aβ plaques originating from or surrounding blood vessels and was analyzed similarly.

Test [2] relates to TgCRND8 mice. The experiment in a line: Vascular amyloid (Aβ) burden. The conditions noted are these: prophylactic treatment, vs untreated. As to the method:
Cerebral amyloid burden. Brains were removed and one hemisphere was fixed in 4% paraformaldehyde and embedded in paraffin wax in the mid sagittal plane. To generate sets of systematic uniform random sections, 5 μm serial sections were collected across the entire hemisphere. Sets of sections at 50 μm intervals were used for analyses (10-14 sections/set). Plaques were identified after antigen retrieval with formic acid, and incubation with primary anti-Aβ antibody (Dako M-0872), followed by secondary antibody (Dako StreptABCcomplex/horseradish kit). End products were visualized with DAB and were counter-stained with luxol fast blue. Amyloid plaque burden was assessed with Leco IA-3001 image analysis software interfaced with Leica microscope and Hitachi KP-M1U CCD video camera. Openlab imaging software (Improvision, Lexington, Mass.) was then used to convert micrographs to binary images for plaque number and plaque area determinations. Vascular amyloid burden was defined as amyloid originating from or surrounding blood vessels and was analysed similarly.
Cerebral Aβ burden. Brains were removed and fixed one hemisphere from each in 4% paraformaldehyde and embedded in paraffin wax in the midsagittal plane. Sets of sections at […] intervals for analyses (10-14 sections per set) were used. Plaques with primary Aβ-specific antibody (Dako M-0872) were identified and visualized with DAB. AP plaque burden was assessed with Openlab imaging software (Improvision) and used to convert micrographs to binary images for determinations of plaque number and plaque area. Vascular Aβ burden was defined as Aβ plaques originating from or surrounding blood vessels and was analyzed similarly.
Cerebral Aβ burden. Brains were removed and one hemisphere was fixed in 4% paraformaldehyde and embedded in paraffin wax in the mid sagittal plane. […] Aβ plaque burden was assessed with Leco IA-3001 image analysis software interfaced with Leica microscope and Hitachi KP-M1U CCD video camera. […] Vascular Aβ burden was defined as Aβ plaques originating from or surrounding blood vessels and was analyzed similarly.

Setting [3] is: 1 month Treatment: TgCRND8 mice, oral from 5 to 6 months of age.
[4] abbreviates: 4-month Prophylactic: TgCRND8 mice, oral from 6 weeks to 4 months of age.
Setting [5] is: 6-month Prophylactic: TgCRND8 mice, oral from 6 weeks to 6 months of age.
Setting [6] is: TgCRND8 mice with pre-existing disease, 28 days from 5 months of age.
Setting [7] is: TgCRND8 mice, 28 day course at 5 months of age, vs untreated.
Where [8] appears, read: TgCRND8 mice, oral, 28 days from 5 months of age, analysed at 6 months.
[9] abbreviates: TgCRND8 mice, prophylactic, 6 months of age.
The mark [10] stands for this setting: TgCRND8 mice, prophylactic treatment, 4 months of age.
Setting [11] is: TgCRND8 mice, oral, 28 days from 5 months of age, analysed at 6 months, listed as Epi-cyclohexanchexol.

“Also recorded” adds a separate entry of the source. Marks after values point to notes of the source that are not given here.

T1 sequence (P05067 672-713 limits assumed): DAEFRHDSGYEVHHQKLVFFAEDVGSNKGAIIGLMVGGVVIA
T2 sequence (P05067 672-711 limits assumed): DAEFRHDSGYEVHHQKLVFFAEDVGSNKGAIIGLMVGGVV

Take `OC1C(O)C(O)C(O)C(O)C1O` (stereo not shown) [scyllo-cyclohexanehexol, 1,3,5/2,4,6-(scyllo-) cyclohexanehexol]: the “brain Aβ42 levels” value at Aβ42 is reported as “reduced levels”. Besides, on Aβ40, the “brain Aβ40 levels” value was “reduced levels”. Moreover, in the test on TgCRND8 mice [1] (setting [3]), the “Mean Plaque Size (μm^2)” value was 336 ± 6* μm^2 and the “Total Plaque Area (μm^2)” value is reported as 420027 ± 14986* μm^2. For the same compound, in the test with TgCRND8 mice [1] (setting [4]), the “Mean Plaque Size (μm^2)” value is recorded as 103 ± 4* μm^2 and the “Total Plaque Area (μm^2)” value turned out to be 63847 ± 2895 μm^2. Besides, in the test with TgCRND8 mice [1] (setting [5]), the “Mean Plaque Size (μm^2)” value is recorded as 339 ± 10† μm^2 and the “Total Plaque Area (μm^2)” value was 262379 ± 5373† μm^2. Further, the “amyloid burden in hippocampus and cerebral cortex” value (from here on “amyloid burden”) in the test on TgCRND8 mice [1] was “significantly decreased amyloid burden”. The “amyloid burden” value in the test with TgCRND8 mice [1] (listed as AZD-103) was “significantly decreased amyloid burden”. Further, the effect on pathology entry with TgCRND8 mice [1] (TgCRND8 mice treated for 2 months, ending at 7 months of age) is reported as “Sustained effects”. Further, in the test on TgCRND8 mice [1] (setting [6]), the “percent area of the brain covered with plaques” value is recorded as “significantly reduced”, the “plaque number” value was “significantly reduced” and the “plaque size” value is given as “significantly reduced”. Also, the “plaque count, dose-response” value in the test on TgCRND8 mice [1] (TgCRND8 mice, 0.3-30 mg/kg/d orally, 4 months of age, 6F3D immunostaining) is “dose-dependent decrease; also recorded: improvement”. In addition, in the test on TgCRND8 mice [1] (setting [7]), the “percent area of the brain covered by plaques, reduction” value was determined as 14±0.5 % reduction; the plaque number reduction came to 13±0.3 % reduction; the plaque size reduction is on record as 16±0.4 % reduction. In addition, the “plaque burden in hippocampus” value in the test on TgCRND8 mice [1] (TgCRND8 mice, one month of treatment from 5 months of age) is “lower plaque burden”. Also, in the test with TgCRND8 mice [1] (setting [8]), the “Mean Plaque Size (μm^2)” value is 336 ± 6* μm^2, the “Total Plaque Area (μm^2)” value is 420027 ± 14986* μm^2 and the “Total Plaque Count” value is on record as 1260 ± 27. The “mean plaque size” value in the test with TgCRND8 mice [1] (setting [9]) is reported as “smaller mean plaque size”. For the same compound, in the test with TgCRND8 mice [1] (TgCRND8 mice, prophylactic, at 4 and 6 months of age), the “all measures of plaque burden” value is recorded as “sustained decrease in all measures of plaque burden”. In the test on TgCRND8 mice [2], the “brain area covered by cerebrovascular Aβ” value is “reduced brain area covered by cerebrovascular Aβ” and the “mean size of cerebrovascular deposits” value is reported as “reduced mean size of cerebrovascular deposits”.
For the compound `OC1C(O)C(O)C(O)C(O)C1O` (stereo not drawn) [epi-cyclohexanehexol, 1,2,3,4,5/6-(epi-) cyclohexanehexol, reference compound], at Aβ42, the “brain Aβ42 levels” value was “no significant impact; also recorded: no significant effect”. Further, on Aβ42 (setting [10]), the “reduction of brain Aβ42 (range given for both Aβ40 and Aβ42)” value is listed as 22-62 % reduction. Also, on Aβ40, the “brain Aβ40 levels” value is given as “no significant impact; also recorded: no significant effect”. In addition, the “reduction of brain Aβ40 (range given for both Aβ40 and Aβ42)” value on Aβ40 (setting [10]) was 22-62 % reduction. The “Mean Plaque Size (μm^2)” value in the test on TgCRND8 mice [1] (setting [3]) was 346 ± 6 μm^2; in the test with TgCRND8 mice [1] (setting [4]), 95 ± 43 μm^2; in the test on TgCRND8 mice [1] (setting [5]) it was 370 ± 9 μm^2; with TgCRND8 mice [1] (setting [11]), 346 ± 6 μm^2. In addition, the “Total Plaque Area (μm^2)” value in the test on TgCRND8 mice [1] (setting [3]) is recorded as 459706 ± 49966 μm^2; with TgCRND8 mice [1] (setting [4]) it was 65042 ± 5199 μm^2; in the test on TgCRND8 mice [1] (setting [5]) it was 380456 ± 13498 μm^2; in the test with TgCRND8 mice [1] (setting [11]) it was 459706 ± 49966 μm^2. Moreover, the “amyloid burden” value in the test with TgCRND8 mice [1] and in the test on TgCRND8 mice [1] (listed as AZD-102) was “modest effect on amyloid burden” throughout. Further, in the test on TgCRND8 mice [1] (setting [6]), the “percent area of the brain covered with plaques” value is on record as “no significant impact; also recorded: no significant effect”. In addition, in the test on TgCRND8 mice [1] (setting [6]), the “plaque number” value is reported as “no significant impact; also recorded: no significant effect”. Also, the “Total Plaque Count” value in the test on TgCRND8 mice [1] (setting [11]) is given as 1342 ± 114. The “mean plaque size” value was “significant decrease in mean plaque size” with TgCRND8 mice [1] (TgCRND8 mice, prophylactic, 4 months of age) and “reductions were not sustained” with TgCRND8 mice [1] (setting [9]). For the same compound, the “total vascular Aβ load / vascular Aβ deposits” value in the test on TgCRND8 mice [2] was “no change”.
